Results as given in PubChem BioAssay AID686955 (ICCB-Longwood Screening Facility, Harvard Medical School, 2013).
Calls of active or inactive are those of the source.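 Rule for the calls: active = compounds that shift the dex/IL-1 ratio, either lowering it activators or doubling it inhibitors, at 1 µM (some results past the limit were not filed as active); inactive = the rest.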

Tested on: NF-kB luciferase reporter cells, IL-1b + dexamethasone, 18 h
Assay: GR-specific modulators of NF-kB trans-repression, confirmation, cell-based, luciferase, IL-1B plus dexamethasone (AID 686955)
Settings: for assay II/I ratio: 4 uM; for normalized assay II/I ratio: at 1 µM

SMILES	assay II/I ratio (dexamethasone conc 1)	assay II/I ratio (dexamethasone conc 2)	normalized assay II/I ratio	normalized assay II/I ratio (dexamethasone concentration 2)
Cc1[nH]nc2c1N=C(c1ccccc1F)c1cc(C#N)ccc1N2	0.66	0.386	1.87 (inactive)	2.07
COc1ccc(O)c(C(=O)c2ccc(C(=O)O[C@H]3CCCNC[C@@H]3NC(=O)c3ccncc3)cc2)c1F	0.85	0.659	0.93 (inactive)	0.89
O=C(NC1NNC2NNC(c3cccnc3)CC21)C1CC1 (stereo unspecified)	0.597	0.43	1.91 (inactive)	1.94
COc1cccc(-n2ncc3c(N/N=C/c4ccncc4)ncnc32)c1	0.504	0.362	1.47 (inactive)	1.44
O=C(Nc1n[nH]c2nc(-c3ccc(O)cc3)c(Br)cc12)C1CC1	0.935	0.684	2.27	2.53
Cn1cc(C2=C(c3cccc(NCC(O)CO)c3)C(=O)NC2=O)c2cc(Cl)ccc21 (stereo unspecified)	0.664	0.47	1.93 (inactive)	1.97
Cn1cc(C2=C(c3cccc(OCC(O)CO)c3)C(=O)NC2=O)c2ccccc21 (stereo unspecified)	0.553	0.398	1.68 (inactive)	1.68
COc1cccc(-n2ncc3c(N/N=C/c4ccc(S(C)(=O)=O)cc4)ncnc32)c1	0.326	0.242	1.18 (inactive)	1.17
Cn1cc(C2=C(c3ccccc3[N+](=O)[O-])C(=O)NC2=O)c2ccccc21	0.733	0.646	2.39	2.62
